Test results taken from ChEMBL document CHEMBL5032495, “Discovery of Novel Tacrine-Pyrimidone Hybrids as Potent Dual AChE/GSK-3 Inhibitors for the Treatment of Alzheimer's Disease” (J Med Chem, 2021).
Calls of active or inactive are those of the source. The rule behind the calls is not given here.

How the values were obtained:
Acetylcholinesterase = biological target: T1, Acetylcholinesterase (Mus musculus, UniProt P21836); experiment: Inhibition of mouse AChE using acetylthiocholine iodide as substrate incubated for 20 mins by Ellman's method
T1 sequence (P21836 whole entry): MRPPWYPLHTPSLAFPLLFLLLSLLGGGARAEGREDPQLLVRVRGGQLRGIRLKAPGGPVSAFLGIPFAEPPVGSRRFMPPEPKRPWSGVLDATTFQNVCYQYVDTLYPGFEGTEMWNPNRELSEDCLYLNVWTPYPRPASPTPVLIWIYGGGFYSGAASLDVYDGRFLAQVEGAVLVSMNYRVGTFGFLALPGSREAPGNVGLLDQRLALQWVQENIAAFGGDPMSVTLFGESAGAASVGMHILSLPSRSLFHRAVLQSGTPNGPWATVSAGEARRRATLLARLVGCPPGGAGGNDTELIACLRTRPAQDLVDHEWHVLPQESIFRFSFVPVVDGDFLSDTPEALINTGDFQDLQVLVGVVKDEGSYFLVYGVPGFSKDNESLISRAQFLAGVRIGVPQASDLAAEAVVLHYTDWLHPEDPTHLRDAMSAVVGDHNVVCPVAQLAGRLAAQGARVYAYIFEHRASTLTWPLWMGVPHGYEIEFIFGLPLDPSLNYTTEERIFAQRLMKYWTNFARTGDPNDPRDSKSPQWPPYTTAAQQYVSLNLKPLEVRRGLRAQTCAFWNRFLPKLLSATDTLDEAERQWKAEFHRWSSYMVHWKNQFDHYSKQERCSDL

[1] = Half life in ICR mouse at 5 mg/kg, iv measured upto 24 hrs by UPLC-MS/MS analysis; assay type: ADME, organism-based; details: in vivo
[2] = Half life in ICR mouse at 15 mg/kg, ip measured upto 24 hrs by UPLC-MS/MS analysis; assay type: ADME, organism-based; details: in vivo
[3] = Tmax in ICR mouse at 5 mg/kg, iv measured upto 24 hrs by UPLC-MS/MS analysis; assay type: ADME, organism-based; details: in vivo
[4] = Tmax in ICR mouse at 15 mg/kg, ip measured upto 24 hrs by UPLC-MS/MS analysis; assay type: ADME, organism-based; details: in vivo
[5] = Cmax in ICR mouse at 5 mg/kg, iv measured upto 24 hrs by UPLC-MS/MS analysis; assay type: ADME, organism-based; parameters: route intravenous, dose 5 mg/kg, time <=24; details: in vivo
[6] = Cmax in ICR mouse at 15 mg/kg, ip measured upto 24 hrs by UPLC-MS/MS analysis; assay type: ADME, organism-based; parameters: route intraperitoneal, dose 15 mg/kg, time <=24; details: in vivo
[7] = AUClast in ICR mouse at 5 mg/kg, iv measured upto 24 hrs by UPLC-MS/MS analysis; assay type: ADME, organism-based; parameters: route intravenous, dose 5 mg/kg, time <=24; details: in vivo
[8] = AUClast in ICR mouse at 15 mg/kg, ip measured upto 24 hrs by UPLC-MS/MS analysis; assay type: ADME, organism-based; parameters: route intraperitoneal, dose 15 mg/kg, time <=24; details: in vivo
[9] = Volume of distribution in ICR mouse at 5 mg/kg, iv measured upto 24 hrs by UPLC-MS/MS analysis; assay type: ADME, organism-based; details: in vivo
[10] = Volume of distribution in ICR mouse at 15 mg/kg, ip measured upto 24 hrs by UPLC-MS/MS analysis; assay type: ADME, organism-based; details: in vivo
[11] = Apparent oral clearance in ICR mouse at 5 mg/kg measured upto 24 hrs by UPLC-MS/MS analysis; assay type: ADME, organism-based; details: in vivo
[12] = Apparent oral clearance in ICR mouse at 15 mg/kg measured upto 24 hrs by UPLC-MS/MS analysis; assay type: ADME, organism-based; details: in vivo
[13] = MRTlast in ICR mouse at 5 mg/kg, iv measured upto 24 hrs by UPLC-MS/MS analysis; assay type: ADME, organism-based; details: in vivo
[14] = MRTlast in ICR mouse at 15 mg/kg, ip measured upto 24 hrs by UPLC-MS/MS analysis; assay type: ADME, organism-based; details: in vivo
[15] = Bioavailability in ICR mouse at 15 mg/kg, ip measured upto 24 hrs by UPLC-MS/MS analysis; assay type: ADME, organism-based; details: in vivo
[16] = Drug concentration in ICR mouse plasma at 15 mg/kg, ip measured after 0.5 hrs by UPLC-MS/MS analysis; assay type: ADME, organism-based
[17] = Drug concentration in ICR mouse plasma at 15 mg/kg, ip measured after 1 hr by UPLC-MS/MS analysis; assay type: ADME, organism-based
[18] = Drug concentration in ICR mouse plasma at 15 mg/kg, ip measured after 2 hrs by UPLC-MS/MS analysis; assay type: ADME, organism-based
[19] = Drug concentration in ICR mouse plasma at 15 mg/kg, ip measured after 4 hrs by UPLC-MS/MS analysis; assay type: ADME, organism-based
[20] = Drug concentration in ICR mouse brain at 15 mg/kg, ip measured after 0.5 hrs by UPLC-MS/MS analysis; assay type: ADME, organism-based; details: read-out: Drug uptake
[21] = Drug concentration in ICR mouse brain at 15 mg/kg, ip measured after 1 hr by UPLC-MS/MS analysis; assay type: ADME, organism-based; details: read-out: Drug uptake
[22] = Drug concentration in ICR mouse brain at 15 mg/kg, ip measured after 2 hrs by UPLC-MS/MS analysis; assay type: ADME, organism-based; details: read-out: Drug uptake
[23] = Drug concentration in ICR mouse brain at 15 mg/kg, ip measured after 4 hrs by UPLC-MS/MS analysis; assay type: ADME, organism-based; details: read-out: Drug uptake
[24] = Ratio of drug concentration in brain to plasma in ICR mouse at 15 mg/kg, ip measured after 0.5 hrs by UPLC-MS/MS analysis; assay type: ADME, organism-based
[25] = Ratio of drug concentration in brain to plasma in ICR mouse at 15 mg/kg, ip measured after 1 hr by UPLC-MS/MS analysis; assay type: ADME, organism-based
[26] = Ratio of drug concentration in brain to plasma in ICR mouse at 15 mg/kg, ip measured after 2 hrs by UPLC-MS/MS analysis; assay type: ADME, organism-based
[27] = Ratio of drug concentration in brain to plasma in ICR mouse at 15 mg/kg, ip measured after 4 hrs by UPLC-MS/MS analysis; assay type: ADME, organism-based
[28] = biological target: T2, Glycogen synthase kinase-3 beta (Homo sapiens, UniProt P49841); experiment: Inhibition of GSK-3beta in glyceraldehyde-treated human SH-SY5Y cells assessed as reduction in phosphorylated Tau levels at S199 site measured after 24 hrs by ELISA
Target sequence in this assay (P49841 whole entry, looked up): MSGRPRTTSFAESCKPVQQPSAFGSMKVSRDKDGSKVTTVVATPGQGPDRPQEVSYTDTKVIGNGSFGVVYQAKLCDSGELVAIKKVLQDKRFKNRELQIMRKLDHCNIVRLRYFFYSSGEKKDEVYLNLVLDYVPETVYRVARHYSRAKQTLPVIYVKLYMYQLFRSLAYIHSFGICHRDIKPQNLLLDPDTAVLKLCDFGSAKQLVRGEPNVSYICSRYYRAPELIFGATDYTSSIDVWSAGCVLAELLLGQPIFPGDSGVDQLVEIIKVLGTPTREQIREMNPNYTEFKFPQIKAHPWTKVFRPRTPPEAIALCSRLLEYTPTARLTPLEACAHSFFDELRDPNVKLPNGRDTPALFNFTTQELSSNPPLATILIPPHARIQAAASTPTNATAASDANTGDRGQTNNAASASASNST

[29] = biological target: T2, Glycogen synthase kinase-3 beta; experiment: Inhibition of GSK-3beta in glyceraldehyde-treated human SH-SY5Y cells assessed as reduction in phosphorylated Tau levels at S396 site measured after 24 hrs by ELISA
Target sequence in this assay (P49841 whole entry, looked up): as above

SH-SY5Y [30] = experiment: Neuroprotective activity against glyceraldehyde-induced neurotoxicity in human SH-SY5Y cells assessed as increase in cell viability at 0.5 to 5 uM incubated for 24 hrs by MTT assay; assay type: functional, cell-based; details: dose 0.5-5 µM
SH-SY5Y [31] = experiment: Neuroprotective activity in human SH-SY5Y cells assessed as prevention of glyceraldehyde-induced neurite shortening at 0.5 to 5 uM incubated for 1 hr by confocal microsocopic analysis; assay type: functional, cell-based; details: dose 0.5-5 µM
[32] = biological target: Glycogen synthase kinase-3 alpha (Homo sapiens) (UniProt P49840); experiment: Inhibition of GSK-3alpha (unknown origin) at 1000 nM
[33] = biological target: T2, Glycogen synthase kinase-3 beta; experiment: Inhibition of GSK-3beta (unknown origin) at 1000 nM
Target sequence in this assay (P49841 whole entry, looked up): as above

[34] = Toxicity in ICR mouse assessed as emesis at 15 mg/kg, ip measured after 15 days; assay type: organism-based; details: in vivo, 360 h, time 15 day
[35] = Toxicity in ICR mouse assessed as diarrhea at 15 mg/kg, ip measured after 15 days; assay type: organism-based; details: in vivo, 360 h, time 15 day
[36] = Toxicity in ICR mouse assessed as swimming motility impairment at 15 mg/kg, ip measured after 15 days; assay type: organism-based; details: in vivo, 360 h, time 15 day
[37] = biological target: T2, Glycogen synthase kinase-3 beta
Target sequence in this assay (P49841 whole entry): as the sequence (P49841 whole entry, looked up) above
Description: Inhibition of human recombinant GSK-3beta using prephosphorylated polypeptide as substrate incubated for 30 mins in presence of ATP by Kinase-Glo luminescence assay

Chain of Glycogen synthase kinase-3 alpha (Homo sapiens) (P49840 2-483 limits assumed): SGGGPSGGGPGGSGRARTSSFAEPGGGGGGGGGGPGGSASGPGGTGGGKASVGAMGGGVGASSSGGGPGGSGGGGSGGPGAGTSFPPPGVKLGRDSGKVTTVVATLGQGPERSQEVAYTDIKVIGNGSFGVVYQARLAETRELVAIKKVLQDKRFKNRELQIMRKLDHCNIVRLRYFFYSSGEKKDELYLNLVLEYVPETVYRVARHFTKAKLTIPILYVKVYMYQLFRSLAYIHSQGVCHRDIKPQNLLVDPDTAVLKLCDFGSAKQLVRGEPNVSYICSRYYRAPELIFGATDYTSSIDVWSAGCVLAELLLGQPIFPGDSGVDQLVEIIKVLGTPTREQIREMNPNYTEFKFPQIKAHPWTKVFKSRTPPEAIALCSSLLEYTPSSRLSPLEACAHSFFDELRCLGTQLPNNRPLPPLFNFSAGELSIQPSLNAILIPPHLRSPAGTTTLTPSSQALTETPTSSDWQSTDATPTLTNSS

Cn1c(NCCCCCCCNc2c3c(nc4cc(Cl)ccc24)CCCC3)nc(-c2ccncc2F)cc1=O
IC50 (Acetylcholinesterase): 51.1 µM
half-life [1]: 219 min
half-life [2]: 69 min
Tmax [3]: 1.98 min
Tmax [4]: 8.34 min
Cmax [5]: 2810 ng/mL
Cmax [6]: 1870 ng/mL
AUC(0-t) at 24 h [7]: 1560 ng·h/mL
AUC(0-t) at 24 h [8]: 1660 ng·h/mL
Vd [9]: 16.4 L/kg
Vd [10]: 14.14 L/kg
CL/F [11]: 0.0513 mL/min/kg
CL/F [12]: 0.152 mL/min/kg
MRT last at 24 h [13]: 183 min
MRT last at 24 h [14]: 46.8 min
bioavailability [15]: 35.3%
concentration at 0.5 h [16]: 866 ng/mL
concentration at 1 h [17]: 76.8 ng/mL
concentration at 2 h [18]: 26.8 ng/mL
concentration at 4 h [19]: 3.47 ng/mL
concentration at 0.5 h [20]: 23.6 ng/g
concentration at 1 h [21]: 11.1 ng/g
concentration at 2 h [22]: 12.2 ng/g
concentration at 4 h [23]: 5.99 ng/g
Kp at 0.5 h [24]: 0.028
Kp at 1 h [25]: 0.148
Kp at 2 h [26]: 0.522
Kp at 4 h [27]: 1.92
inhibition [28]: Dose-Dependent Effect
inhibition [29]: Dose-Dependent Effect
Activity (SH-SY5Y [30]): Active
Activity (SH-SY5Y [31]): Dose-Dependent Effect
inhibition [32]: Active
inhibition [33]: Active
Activity [34]: Non-Toxic
Activity [35]: Non-Toxic
Activity [36]: Non-Toxic
IC50 [37]: 89.3 µM
